Results taken from patent US8129383B2, “Aminopterin dosage forms and methods for inflammatory disorders” (Aminopterin LLC, priority 2005, dated 2012).

Key:
ma104 cells = conditions: read-out: EC50 of adenosine release (prior art); Cronstein'91; cited from earlier work
canine atopic dermatitis = conditions: oral about 0.2 mg/kg/week
Experimental: […] Subjects were assessed at baseline and at weeks 2 and 4 of the trial, and every other week of the 1-year extension phase.
Subjects were assessed at baseline and at weeks 2 and 4.

[1] = system: influx of neutrophils (PMNs) in hyperoxia; assay: rat oxygen-toxicity model of bronchopulmonary dysplasia; assay type: in vivo, rats; conditions: single 0.35 mg/kg ip day 2 after birth, 95% oxygen, sacrifice day 8
Excerpt: Mason, S, N.; Richard L. Auten, J. Lung inflammation in hyperoxia can be prevented by antichemokine treatment in newborn rats. American Journal of Respiratory Critical Care Medicine 2000, 162, 2316-2323]. […] Litter sizes were the same. […] Dams were rotated daily between air and oxygen cages to avoid maternal oxygen toxicity. On day 8, the pups were weighed and then euthanized, tracheas are cannulated and the pulmonary artery is perfused with saline. Bronchoalveolar lavage fluid (BALF) was then obtained for cell count and chemokine analysis (FIG. 3). The lungs were removed and snap frozen for myeloperoxidase activity assay (neutrophil accumulation within lung parenchyma) and 8-isoprostane, a marker of lipid oxidation. The pulmonary artery was perfused and the lungs were inflation-fixed with buffered formalin at 25 cm H2O.

[2] = system: neutrophils that accumulated in the carrageenan-treated air pouches; conditions: weekly ip injection days 1, 7, 14, 21; carrageenan day 22, exudate after 4 hours
Experimental: J. Clin. Invest., 1993. 92(6):2675-82].
A separate group of 5 animals was given vehicle by ip injection on the same days (0.9% saline, control, n=5). On day 16, air pouches were induced on the animals by injecting 3 ml of air subcutaneously on the back. On day 22 (i.e. one day after the last dose of drug or vehicle), inflammation was induced by injection of 1 ml of a suspension of carrageenan (2% weight/volume in calcium- and magnesium-free PBS). The mice were put back in their cages and allowed to run free for 4 hours. […] After 4 hours, the animals were sacrificed, the pouches flushed with 2 ml of PBS and the exudates harvested. Aliquots were diluted 1:1 with methylene blue (0.01% w/v in PBS), and the cells were counted.

[3] = system: carrageenan-induced inflammation in air pouches; assay: duration of efficacy in the murine air-pouch model after cessation of 4 weeks of dosing; assay type: in vivo, mice; conditions: aminopterin 0.05 mg/kg, methotrexate 1.0 mg/kg
Experimental: We therefore examined the rate at which anti-inflammatory activity was lost in the air-pouch model after the cessation of 4 weeks of dosing at the maximally efficacious dose (FIG. 2).
On day 25 the air pouches were re-inflated with 1.5 ml of air. Pouches were re-inflated as needed to maintain them.

## CN(Cc1cnc2nc(N)nc(N)c2n1)c1ccc(C(=O)N[C@@H](CCC(=O)O)C(=O)O)cc1 [methotrexate]
ma104 cells
  EC50: ~1 nM
Canine atopic dermatitis; 4-week trial
  time to produce efficacy compared to aminopterin: took longer to produce efficacy compared to aminopterin
Canine atopic dermatitis; assessed at weeks 2 and 4
  outcome of the five treated dogs: Three dogs did not do well, one had not improved as of the last assessment and one dog improved markedly
[1]
  influx of neutrophils in bronchoalveolar lavage fluid: failed to reduce the influx of neutrophils
[2]
  EC50 for diminishing the number of neutrophils accumulated in carrageenan-treated air pouches: 0.04 mg/kg/wk
[3]; 8, 12 or 22 days after last of 4 weekly ip doses
  difference between aminopterin and methotrexate in rate of recovery of inflammation: no statistically significant difference
[3]; after last of 4 weekly ip doses
  duration of action: quite long
